According to US20250100988A1, “PREPARATION OF A COMPOUND FOR THE TREATMENT OF GOUT OR HYPERURICEMIA” (Arthrosi Therapeutics, Inc., priority 2021, published 2025):

Test: Solubility of test articles in HBSS assay buffer
Details: at all tested concentrations; highest tested concentration 10 μM
Method: Before the experiment, the medium was removed and the cells were washed twice with 100 μL of HBSS without Cl^−. Uptake experiments were carried out at 37±1° C. in 50 μL of HBSS without Cl^−, pH 7.4 containing the probe substrate (20 μM uric acid) and the test article (TA) or solvent.

Row | solubility in HBSS buffer | Compound
1 | soluble | CCc1oc2ccccc2c1C(=O)c1cc(Br)c(O)c(Br)c1 [Benzbromarone]
2 | soluble | [2H]c1c([2H])c([2H])c2c(C(=O)c3cc(Br)c(O)c(Br)c3)c(C(C)O)oc2c1[2H] (centres unmarked) [Compound 1, (3,5-dibromo-4-hydroxyphenyl)(2-(1-hydroxyethyl)benzofuran-3-yl-4,5,6,7-d4)methanone]
